± gives the expanded uncertainty stated by the source.
Experiment: xn = mol fraction of the nth substance listed
Details: 323.15 K, Liquid

With `CCO` [ethanol] + O the mass density (20000 kPa, x1 = 0.1225) was 949.2 ± 0.3 kg/m3, the mass density (20000 kPa, x1 = 0.1296) was 946.9 ± 0.3 kg/m3 and the mass density (20000 kPa, x1 = 0.1402) was 943.3 ± 0.3 kg/m3. The mass density (20000 kPa, x1 = 0.151) was 939.7 ± 0.3 kg/m3, the mass density (20000 kPa, x1 = 0.1601) was 936.7 ± 0.3 kg/m3 and the mass density (20000 kPa, x1 = 0.1703) was 933.3 ± 0.3 kg/m3. For the same compound, the mass density (20000 kPa, x1 = 0.18) was 930.1 ± 0.3 kg/m3, the mass density (20000 kPa, x1 = 0.1903) was 926.8 ± 0.3 kg/m3 and the mass density (20000 kPa, x1 = 0.1996) was 923.8 ± 0.3 kg/m3. It also gave a mass density (20000 kPa, x1 = 0.2269) of 915.3 ± 0.4 kg/m3, a mass density (20000 kPa, x1 = 0.2502) of 908.5 ± 0.4 kg/m3 and a mass density (20000 kPa, x1 = 0.2745) of 901.6 ± 0.4 kg/m3. For the same compound, the mass density (20000 kPa, x1 = 0.3009) was 894.7 ± 0.4 kg/m3, the mass density (20000 kPa, x1 = 0.35) was 882.1 ± 0.4 kg/m3 and the mass density (20000 kPa, x1 = 0.4034) was 869.8 ± 0.4 kg/m3. For the same compound, the mass density (20000 kPa, x1 = 0.4501) was 859.7 ± 0.5 kg/m3, the mass density (20000 kPa, x1 = 0.498) was 850.6 ± 0.5 kg/m3 and the mass density (20000 kPa, x1 = 0.5501) was 841.2 ± 0.5 kg/m3. It also gave a mass density (20000 kPa, x1 = 0.5998) of 833.5 ± 0.5 kg/m3, a mass density (20000 kPa, x1 = 0.6489) of 825.3 ± 0.5 kg/m3 and a mass density (20000 kPa, x1 = 0.6967) of 818.4 ± 0.5 kg/m3. The mass density (20000 kPa, x1 = 0.7475) was 811.7 ± 0.5 kg/m3, the mass density (20000 kPa, x1 = 0.7996) was 804.9 ± 0.6 kg/m3 and the mass density (20000 kPa, x1 = 0.8484) was 799.1 ± 0.6 kg/m3. For the same compound, the mass density (20000 kPa, x1 = 0.8993) was 793.2 ± 0.6 kg/m3, the mass density (20000 kPa, x1 = 0.9503) was 787.7 ± 0.6 kg/m3 and the mass density (20000 kPa, x1 = 1) was 782.3 ± 0.6 kg/m3. The mass density (30000 kPa, x1 = 0.003) was 999 ± 0.2 kg/m3, the mass density (30000 kPa, x1 = 0.0042) was 998 ± 0.2 kg/m3 and the mass density (30000 kPa, x1 = 0.0082) was 996.5 ± 0.3 kg/m3. It also gave a mass density (30000 kPa, x1 = 0.0119) of 995.2 ± 0.3 kg/m3, a mass density (30000 kPa, x1 = 0.0158) of 993 ± 0.3 kg/m3 and a mass density (30000 kPa, x1 = 0.0184) of 991.5 ± 0.3 kg/m3. It also gave a mass density (30000 kPa, x1 = 0.0219) of 990.4 ± 0.3 kg/m3, a mass density (30000 kPa, x1 = 0.0255) of 988.7 ± 0.3 kg/m3 and a mass density (30000 kPa, x1 = 0.0279) of 987.1 ± 0.3 kg/m3. It also gave a mass density (30000 kPa, x1 = 0.0315) of 986.3 ± 0.3 kg/m3, a mass density (30000 kPa, x1 = 0.0366) of 983.6 ± 0.3 kg/m3 and a mass density (30000 kPa, x1 = 0.0392) of 982.4 ± 0.3 kg/m3. The mass density (30000 kPa, x1 = 0.0439) was 980.8 ± 0.3 kg/m3, the mass density (30000 kPa, x1 = 0.0483) was 978.8 ± 0.3 kg/m3 and the mass density (30000 kPa, x1 = 0.0516) was 978 ± 0.3 kg/m3. The mass density (30000 kPa, x1 = 0.0559) was 976.6 ± 0.3 kg/m3, the mass density (30000 kPa, x1 = 0.06) was 975.1 ± 0.3 kg/m3 and the mass density (30000 kPa, x1 = 0.0652) was 973.1 ± 0.3 kg/m3. It also gave a mass density (30000 kPa, x1 = 0.0679) of 972.3 ± 0.3 kg/m3, a mass density (30000 kPa, x1 = 0.0722) of 970.5 ± 0.3 kg/m3 and a mass density (30000 kPa, x1 = 0.0801) of 967.4 ± 0.3 kg/m3. The mass density (30000 kPa, x1 = 0.084) was 967 ± 0.3 kg/m3, the mass density (30000 kPa, x1 = 0.0879) was 965.3 ± 0.3 kg/m3 and the mass density (30000 kPa, x1 = 0.0926) was 963.7 ± 0.3 kg/m3. It also gave a mass density (30000 kPa, x1 = 0.0958) of 962.6 ± 0.3 kg/m3, a mass density (30000 kPa, x1 = 0.1006) of 961 ± 0.3 kg/m3 and a mass density (30000 kPa, x1 = 0.1111) of 957.3 ± 0.3 kg/m3. It also gave a mass density (30000 kPa, x1 = 0.1225) of 953.4 ± 0.3 kg/m3, a mass density (30000 kPa, x1 = 0.1296) of 951.1 ± 0.3 kg/m3 and a mass density (30000 kPa, x1 = 0.1402) of 947.6 ± 0.3 kg/m3. It also gave a mass density (30000 kPa, x1 = 0.151) of 944 ± 0.3 kg/m3, a mass density (30000 kPa, x1 = 0.1601) of 941.1 ± 0.3 kg/m3 and a mass density (30000 kPa, x1 = 0.1703) of 937.7 ± 0.4 kg/m3. The mass density (30000 kPa, x1 = 0.18) was 934.6 ± 0.4 kg/m3, the mass density (30000 kPa, x1 = 0.1903) was 931.4 ± 0.4 kg/m3 and the mass density (30000 kPa, x1 = 0.1996) was 928.4 ± 0.4 kg/m3. The mass density (30000 kPa, x1 = 0.2269) was 920.1 ± 0.4 kg/m3, the mass density (30000 kPa, x1 = 0.2502) was 913.5 ± 0.4 kg/m3 and the mass density (30000 kPa, x1 = 0.2745) was 906.7 ± 0.4 kg/m3. The mass density (30000 kPa, x1 = 0.3009) was 899.8 ± 0.4 kg/m3, the mass density (30000 kPa, x1 = 0.35) was 887.5 ± 0.5 kg/m3 and the mass density (30000 kPa, x1 = 0.4034) was 875.5 ± 0.5 kg/m3. The mass density (30000 kPa, x1 = 0.4501) was 865.7 ± 0.5 kg/m3, the mass density (30000 kPa, x1 = 0.498) was 856.8 ± 0.5 kg/m3 and the mass density (30000 kPa, x1 = 0.5501) was 847.6 ± 0.6 kg/m3. For the same compound, the mass density (30000 kPa, x1 = 0.5998) was 839.6 ± 0.6 kg/m3, the mass density (30000 kPa, x1 = 0.6489) was 832.1 ± 0.6 kg/m3 and the mass density (30000 kPa, x1 = 0.6967) was 825.4 ± 0.6 kg/m3. The mass density (30000 kPa, x1 = 0.7475) was 818.8 ± 0.7 kg/m3, the mass density (30000 kPa, x1 = 0.7996) was 812.3 ± 0.7 kg/m3 and the mass density (30000 kPa, x1 = 0.8484) was 806.6 ± 0.7 kg/m3. It also gave a mass density (30000 kPa, x1 = 0.8993) of 800.9 ± 0.7 kg/m3, a mass density (30000 kPa, x1 = 0.9503) of 795.6 ± 0.7 kg/m3 and a mass density (30000 kPa, x1 = 1) of 790.3 ± 0.7 kg/m3. It also gave a mass density (40000 kPa, x1 = 0.003) of 1003.1 ± 0.2 kg/m3, a mass density (40000 kPa, x1 = 0.0042) of 1002 ± 0.2 kg/m3 and a mass density (40000 kPa, x1 = 0.0082) of 1000.5 ± 0.3 kg/m3. For the same compound, the mass density (40000 kPa, x1 = 0.0119) was 999.2 ± 0.3 kg/m3, the mass density (40000 kPa, x1 = 0.0158) was 996.9 ± 0.3 kg/m3 and the mass density (40000 kPa, x1 = 0.0184) was 995.5 ± 0.3 kg/m3. The mass density (40000 kPa, x1 = 0.0219) was 994.4 ± 0.3 kg/m3, the mass density (40000 kPa, x1 = 0.0255) was 992.7 ± 0.3 kg/m3 and the mass density (40000 kPa, x1 = 0.0279) was 991.1 ± 0.3 kg/m3. For the same compound, the mass density (40000 kPa, x1 = 0.0315) was 990.2 ± 0.3 kg/m3, the mass density (40000 kPa, x1 = 0.0366) was 987.6 ± 0.3 kg/m3 and the mass density (40000 kPa, x1 = 0.0392) was 986.3 ± 0.3 kg/m3. It also gave a mass density (40000 kPa, x1 = 0.0439) of 984.7 ± 0.3 kg/m3, a mass density (40000 kPa, x1 = 0.0483) of 982.7 ± 0.3 kg/m3 and a mass density (40000 kPa, x1 = 0.0516) of 982 ± 0.3 kg/m3. For the same compound, the mass density (40000 kPa, x1 = 0.0559) was 980.5 ± 0.3 kg/m3, the mass density (40000 kPa, x1 = 0.06) was 979.1 ± 0.3 kg/m3 and the mass density (40000 kPa, x1 = 0.0652) was 977 ± 0.3 kg/m3. For the same compound, the mass density (40000 kPa, x1 = 0.0679) was 976.3 ± 0.3 kg/m3 and the mass density (40000 kPa, x1 = 0.0722) was 974.4 ± 0.3 kg/m3.
